SMILES strings stand for the structures.

One assay relates to S. aureus ATCC 29213. As to the kind of experiment: Broth microdilution MIC assay. Format: cell-based. As to conditions: Staphylococcus aureus, ATCC29213; broth microdilution, 16-20 hours at 37° C.; read-out: S. aureus 29213 MIC. As for the experimental part: (§1) To determine the ability of test compounds to potentiate the inhibition of the growth of bacterial strains, classic cell based broth microdilution MIC assays were employed. MIC assays are performed according to CLSI methods except where otherwise noted (CLSI, 2011 and CLSI, 2009). The reference strain S. aureus ATCC 29213 and the hyper-permeable E. coli 901C were used to determine the ability of the PBP compounds to inhibit bacterial growth. Briefly, cryo-preserved bacterial cultures of clinical strains are streaked for isolation on appropriate agar medium, in this case Mueller Hinton II agar. Following incubation to allow formation of colonies these plates are sealed with parafilm and stored refrigerated for up to two weeks. For preparation of assay inocula and to ensure low variability, at least 5 colonies are picked from the agar plates with an inoculating loop and aseptically transferred to a culture tube containing 3 mL of Mueller-Hinton Broth (supplemented with divalent cations to required levels based on Manufacturers' certification). The broth culture is grown for 3-5 hours at 37° C. with shaking at 200 rpm. Meanwhile, 2-fold serial dilutions of test compounds are conducted in a 96 well plate with a final volume of 75 μL per well at 2-fold the final desired concentration. After the dilution plates are set up the growing cultures are then diluted in a cuvette containing MH II broth and the optical density is measured at 600 nm. Inocula are diluted such that 75 μL of this culture in Mueller-Hinton Broth results in a starting bacterial concentration of 5×10^5 CFU/mL when added to the dilution plates. The plates are incubated 16-20 hours at 37° C. The MIC is read visually as the lowest concentration well with no bacterial growth.
Background: Dilution methods test growth across graded concentrations, often in twofold steps.

Assay [1] deals with hyper-permeable E. coli 901C. As to the kind of experiment: Broth microdilution MIC assay. It counts as cell-based. As to conditions: Escherichia coli, read-out: E. coli 901C MIC. As for the experimental part: as §1
The subject of the next assay is E. coli DH5α/pLBII. As to the kind of experiment: Broth microdilution MIC assay, empty vector control strain. As to conditions: Escherichia coli, read-out: E. coli DH5α/pLBII Microbiological Activity (MIC). It counts as cell-based. As for the experimental part: as §1
(§2) To determine if test compounds were affected by CTX-M15, the most abundant extended spectrum β-lactamase in clinical settings worldwide, the inhibition of the growth of an engineered strain of Escherichia coli harboring CTX-M15 was tested. This strain was constructed by cloning the gene encoding CTX-M15 into the NdeI and BamHI restriction endonuclease sites of plasmid pLBII, placing the gene(s) under the control of the Lac promoter. The constructed expression plasmid for CTX-M15 was used to transform competent E. coli DH5a cells to make the engineered strain, including an empty pLBII vector control strain. The classic cell based broth microdilution MIC assay was employed as described above with the addition of control antibiotics, known to be degraded by β-lactamases (Ceftazidime, piperacillin and piperacillin+tazobactam).

In assay [2] the test system is E. coli DH5α/pLBII-CTX-M15. As to the kind of experiment: Broth microdilution MIC assay, engineered strain producing CTX-M15. As to conditions: for MIC: Escherichia coli, read-out: E. coli DH5α/pLBII-CTX-M15 Microbiological Activity (MIC); for MIC in the CTX-M15 producer compared with the parent strain with the empty pLBII plasmid: comparison in words. It counts as cell-based, Escherichia coli. Here is the method: as §1, §2

Regarding `Nc1nc(CC(=O)NC(C(=O)N[C@H]2Cc3cccc(C(=O)O)c3OB2O)c2csc(N)n2)cs1` (stereo partly drawn) [Example 22, (3R)-3-(2-(2-aminothiazol-4-yl)-2-(2-(2-aminothiazol-4-yl)acetamido)acetamido)-2-hydroxy-3,4-dihydro-2H-benzo[e][1,2]oxaborinine-8-carboxylic acid], the MIC in the assay on S. aureus ATCC 29213 is 64 to 128 mg/L; in assay [1], under 64 mg/L; in the assay with E. coli DH5α/pLBII, 128 to 256 mg/L; in assay [2] it was 128 to 256 mg/L.
Regarding `CCN1CCN(C(=O)N[C@@H](C(=O)N[C@H]2Cc3cccc(C(=O)O)c3OB2O)[C@H](O)CO)C(=O)C1=O` [Example 74, (R)-3-((2R,3S)-2-(4-ethyl-2,3-dioxopiperazine-1-carboxamido)-3,4-dihydroxybutanamido)-2-hydroxy-3,4-dihydro-2H-benzo[e][1,2]oxaborinine-8-carboxylic acid], the MIC in the assay on S. aureus ATCC 29213 was over 128 mg/L; in assay [1] it was under 64 mg/L; in the assay on E. coli DH5α/pLBII, 32 to 64 mg/L; in assay [2], 32 to 64 mg/L.
In the case of `N[C@@H](C(=O)N[C@H]1Cc2cccc(C(=O)O)c2OB1O)c1ccc(O)cc1` [Example 6, (R)-3-((R)-2-amino-2-(4-hydroxyphenyl)acetamido)-2-hydroxy-3,4-dihydro-2H-benzo[e][1,2]oxaborinine-8-carboxylic acid], the MIC in the assay with S. aureus ATCC 29213 was over 128 mg/L; in assay [1], over 128 mg/L; in the assay on E. coli DH5α/pLBII it was over 512 mg/L; in assay [2], over 512 mg/L.
As for `Nc1nc(C(NC(=O)NCC(=O)O)C(=O)N[C@H]2Cc3cccc(C(=O)O)c3OB2O)cs1` (stereo partly drawn) [Example 90, (3R)-3-(2-(2-aminothiazol-4-yl)-2-(3-(carboxymethyl)ureido)acetamido)-2-hydroxy-3,4-dihydro-2H-benzo[e][1,2]oxaborinine-8-carboxylic acid], the MIC with S. aureus ATCC 29213 was over 128 mg/L; in assay [1], under 64 mg/L; in assay [2], 128 to 256 mg/L.
For the compound `CCN1CCN(C(=O)N[C@@H](C(=O)N[C@@H]2C(=O)N3[C@@H]2SC(C)(C)[C@@H]3C(=O)O)c2ccccc2)C(=O)C1=O` [piperacillin, reference compound], the MIC in the assay with E. coli DH5α/pLBII was under 1 mg/L; in assay [2], 128 to 256 mg/L. The “MIC in the CTX-M15 producer compared with the parent strain with the empty pLBII plasmid” value in assay [2] is given as “weaker MICs”.
Take `CS(=O)(=O)N1CCC(C(=O)NC(C(=O)N[C@H]2Cc3cccc(C(=O)O)c3OB2O)c2csc(N)n2)CC1` (stereo partly drawn) [Example 70, (3R)-3-(2-(2-aminothiazol-4-yl)-2-(1-(methylsulfonyl)piperidine-4-carboxamido)acetamido)-2-hydroxy-3,4-dihydro-2H-benzo[e][1,2]oxaborinine-8-carboxylic acid]: the MIC is over 128 mg/L in the assay on S. aureus ATCC 29213 and under 64 mg/L in assay [1].
On to `CCN1CCN(C(=O)N[C@@H](C(=O)N[C@H]2Cc3cccc(C(=O)O)c3OB2O)C(O)c2ccccc2)C(=O)C1=O` (single isomer, unassigned) [Example 80], for which the figures for the MIC (in the assay on S. aureus ATCC 29213; in assay [1]) were 64 to 128 mg/L and under 64 mg/L, respectively.
Turning to `CC(=O)N1CCN(C(=O)NC(C(=O)N[C@H]2Cc3cccc(C(=O)O)c3OB2O)c2csc(N)n2)C1=O` (stereo partly drawn) [Example 71, (3R)-3-(2-(3-acetyl-2-oxoimidazolidine-1-carboxamido)-2-(2-aminothiazol-4-yl)acetamido)-2-hydroxy-3,4-dihydro-2H-benzo[e][1,2]oxaborinine-8-carboxylic acid], the MIC is 64 to 128 mg/L in the assay on S. aureus ATCC 29213 and under 64 mg/L in assay [1].
Turning to `COC(=O)CCNC(=O)NC(C(=O)N[C@H]1Cc2cccc(C(=O)O)c2OB1O)c1csc(N)n1` (stereo partly drawn) [Example 88, (3R)-3-(2-(2-aminothiazol-4-yl)-2-(3-(3-methoxy-3-oxopropyl)ureido)acetamido)-2-hydroxy-3,4-dihydro-2H-benzo[e][1,2]oxaborinine-8-carboxylic acid], the MIC in the assay on S. aureus ATCC 29213 was over 128 mg/L; in assay [1] it was under 64 mg/L; in assay [2], 128 to 256 mg/L.
Take `NCC1CCCN(C(=O)NC(C(=O)N[C@H]2Cc3cccc(C(=O)O)c3OB2O)c2csc(N)n2)C1` (stereo partly drawn) [Example 76, (3R)-3-(2-(3-(aminomethyl)piperidine-1-carboxamido)-2-(2-aminothiazol-4-yl)acetamido)-2-hydroxy-3,4-dihydro-2H-benzo[e][1,2]oxaborinine-8-carboxylic acid]: the MIC with S. aureus ATCC 29213 is over 128 mg/L; in assay [1], 64 to 128 mg/L.
Consider `CC(C)(O/N=C(\C(=O)N[C@@H]1C(=O)N2C(C(=O)[O-])=C(C[n+]3ccccc3)CS[C@H]12)c1csc(N)n1)C(=O)O` [ceftazidime, reference compound], for which the MIC with E. coli DH5α/pLBII is under 1 mg/L. In addition, in assay [2], the MIC lay in the range of 8 to 16 mg/L and the “MIC in the CTX-M15 producer compared with the parent strain with the empty pLBII plasmid” value was “weaker MICs”.
Turning to `NCC1CCN(C(=O)NC(C(=O)N[C@H]2Cc3cccc(C(=O)O)c3OB2O)c2csc(N)n2)CC1` (stereo partly drawn) [Example 75, (3R)-3-(2-(4-(aminomethyl)piperidine-1-carboxamido)-2-(2-aminothiazol-4-yl)acetamido)-2-hydroxy-3,4-dihydro-2H-benzo[e][1,2]oxaborinine-8-carboxylic acid], the values for the MIC (in the assay on S. aureus ATCC 29213; in assay [1]) were over 128 mg/L and under 64 mg/L, respectively.
Turning to `Nc1nc(C(NCC(=O)O)C(=O)N[C@H]2Cc3cccc(C(=O)O)c3OB2O)cs1` (stereo partly drawn) [Example 10, (3R)-3-(2-(2-aminothiazol-4-yl)-2-((carboxymethyl)amino)acetamido)-2-hydroxy-3,4-dihydro-2H-benzo[e][1,2]oxaborinine-8-carboxylic acid], in the assay with S. aureus ATCC 29213, the MIC is over 128 mg/L.
`Nc1nc(C(NC(=O)CCB(O)O)C(=O)N[C@H]2Cc3cccc(C(=O)O)c3OB2O)cs1` (stereo partly drawn) [Example 89, (3R)-3-(2-(2-aminothiazol-4-yl)-2-(3-boronopropanamido)acetamido)-2-hydroxy-3,4-dihydro-2H-benzo[e][1,2]oxaborinine-8-carboxylic acid]: the values for the MIC (in the assay on S. aureus ATCC 29213; in assay [1]; in assay [2]) were over 128 mg/L, over 128 mg/L and 128 to 256 mg/L, respectively.
Turning to `CCN1CCN(C(=O)NC(C(=O)N[C@H]2Cc3cccc(C(=O)O)c3OB2O)C(C)c2ccccc2)C(=O)C1=O` (stereo partly drawn) [Example 84, (3R)-3-(2-(4-ethyl-2,3-dioxopiperazine-1-carboxamido)-3-phenylbutanamido)-2-hydroxy-3,4-dihydro-2H-benzo[e][1,2]oxaborinine-8-carboxylic acid], the MIC with S. aureus ATCC 29213 was 64 to 128 mg/L; in assay [1], under 64 mg/L; in assay [2] it was 128 to 256 mg/L.
Turning to `CCN1CCN(C(=O)N[C@H](C(=O)N[C@H]2Cc3cccc(C(=O)O)c3OB2O)C(O)c2ccccc2)C(=O)C1=O` (single isomer, unassigned) [Example 81], the MIC (in the assay on S. aureus ATCC 29213; in assay [1]) was over 128 mg/L each time.
Turning to `Nc1nc(C(NC(=O)NCCC(=O)O)C(=O)N[C@H]2Cc3cccc(C(=O)O)c3OB2O)cs1` (stereo partly drawn) [Example 87, (3R)-3-(2-(2-aminothiazol-4-yl)-2-(3-(2-carboxyethyl)ureido)acetamido)-2-hydroxy-3,4-dihydro-2H-benzo[e][1,2]oxaborinine-8-carboxylic acid], the MIC with S. aureus ATCC 29213 is over 128 mg/L; in assay [1], 64 to 128 mg/L; in assay [2], 128 to 256 mg/L.

(Values after patent US11332485B2, “Penicillin-binding protein inhibitors” (priority 2017, dated 2022).)
